Assay results: patent publication US11021444B2, “Antiviral compounds” (priority 2013, dated 2021)
Where two headings read alike, the source gives them in different places.

What was measured:
[1] = target: recombinant RSV complex (Human respiratory syncytial virus A, UniProt P28887); assay: RSV Polymerase Inhibition Assay; type: biochemical
Summary of the method: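 Inhibition measured as reduced incorporation of radiolabel into RNA products, detected by scintillation counting. Reactions: recombinant RSV complex (10 nM), RNA oligonucleotides, Tris-HCl pH 7.5, 6 mM MgCl2, inhibitor titration, 2 h at 30 °C, EDTA stop.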

[2] = test system: Respiratory Syncytial Virus (RSV) long strain; assay: microbe, parasite or virus in culture; type: cell-based; conditions: human respiratory syncytial virus, Tables A and B list compounds by EC50 band
Summary of the method: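 CPE-reduction format: viability measured colorimetrically with CCK-8 (450 nm, 630 nm reference) after 3-4 h, following 5-day infection at 37 °C, 5% CO2. Cells were HEp-2; inoculum 100 TCID50/well; duplicate 9-point 1/3 series starting at 100 μM or 1 μM.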

[3] = Cytotoxicity Determination (CCK-8, without addition of virus); type: cell-based; conditions: human, 50% cytotoxicity concentration (CC50)
Summary of the method: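 Cytotoxicity was measured by CCK-8 after 3-4 hours at 37 °C, following 5 days of uninfected exposure at 37 °C and 5% CO2. Compounds ran as duplicate 7-point 1/2 dilutions starting at 100 μM, with 1% final DMSO. HEp-2 cells had been plated at 1,500/well the day before.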

[4] = HEp-2, 120 h, read-out: 50% effective concentration (EC50), HEp-2 cells infected with RSV long strain, 5 days, CCK-8 readout
[5] = 120 h, read-out: 50% effective concentration (EC50), HEp-2 cells infected with RSV long strain, 5 days, CCK-8 readout

Chain of recombinant RSV complex (P28887 whole entry): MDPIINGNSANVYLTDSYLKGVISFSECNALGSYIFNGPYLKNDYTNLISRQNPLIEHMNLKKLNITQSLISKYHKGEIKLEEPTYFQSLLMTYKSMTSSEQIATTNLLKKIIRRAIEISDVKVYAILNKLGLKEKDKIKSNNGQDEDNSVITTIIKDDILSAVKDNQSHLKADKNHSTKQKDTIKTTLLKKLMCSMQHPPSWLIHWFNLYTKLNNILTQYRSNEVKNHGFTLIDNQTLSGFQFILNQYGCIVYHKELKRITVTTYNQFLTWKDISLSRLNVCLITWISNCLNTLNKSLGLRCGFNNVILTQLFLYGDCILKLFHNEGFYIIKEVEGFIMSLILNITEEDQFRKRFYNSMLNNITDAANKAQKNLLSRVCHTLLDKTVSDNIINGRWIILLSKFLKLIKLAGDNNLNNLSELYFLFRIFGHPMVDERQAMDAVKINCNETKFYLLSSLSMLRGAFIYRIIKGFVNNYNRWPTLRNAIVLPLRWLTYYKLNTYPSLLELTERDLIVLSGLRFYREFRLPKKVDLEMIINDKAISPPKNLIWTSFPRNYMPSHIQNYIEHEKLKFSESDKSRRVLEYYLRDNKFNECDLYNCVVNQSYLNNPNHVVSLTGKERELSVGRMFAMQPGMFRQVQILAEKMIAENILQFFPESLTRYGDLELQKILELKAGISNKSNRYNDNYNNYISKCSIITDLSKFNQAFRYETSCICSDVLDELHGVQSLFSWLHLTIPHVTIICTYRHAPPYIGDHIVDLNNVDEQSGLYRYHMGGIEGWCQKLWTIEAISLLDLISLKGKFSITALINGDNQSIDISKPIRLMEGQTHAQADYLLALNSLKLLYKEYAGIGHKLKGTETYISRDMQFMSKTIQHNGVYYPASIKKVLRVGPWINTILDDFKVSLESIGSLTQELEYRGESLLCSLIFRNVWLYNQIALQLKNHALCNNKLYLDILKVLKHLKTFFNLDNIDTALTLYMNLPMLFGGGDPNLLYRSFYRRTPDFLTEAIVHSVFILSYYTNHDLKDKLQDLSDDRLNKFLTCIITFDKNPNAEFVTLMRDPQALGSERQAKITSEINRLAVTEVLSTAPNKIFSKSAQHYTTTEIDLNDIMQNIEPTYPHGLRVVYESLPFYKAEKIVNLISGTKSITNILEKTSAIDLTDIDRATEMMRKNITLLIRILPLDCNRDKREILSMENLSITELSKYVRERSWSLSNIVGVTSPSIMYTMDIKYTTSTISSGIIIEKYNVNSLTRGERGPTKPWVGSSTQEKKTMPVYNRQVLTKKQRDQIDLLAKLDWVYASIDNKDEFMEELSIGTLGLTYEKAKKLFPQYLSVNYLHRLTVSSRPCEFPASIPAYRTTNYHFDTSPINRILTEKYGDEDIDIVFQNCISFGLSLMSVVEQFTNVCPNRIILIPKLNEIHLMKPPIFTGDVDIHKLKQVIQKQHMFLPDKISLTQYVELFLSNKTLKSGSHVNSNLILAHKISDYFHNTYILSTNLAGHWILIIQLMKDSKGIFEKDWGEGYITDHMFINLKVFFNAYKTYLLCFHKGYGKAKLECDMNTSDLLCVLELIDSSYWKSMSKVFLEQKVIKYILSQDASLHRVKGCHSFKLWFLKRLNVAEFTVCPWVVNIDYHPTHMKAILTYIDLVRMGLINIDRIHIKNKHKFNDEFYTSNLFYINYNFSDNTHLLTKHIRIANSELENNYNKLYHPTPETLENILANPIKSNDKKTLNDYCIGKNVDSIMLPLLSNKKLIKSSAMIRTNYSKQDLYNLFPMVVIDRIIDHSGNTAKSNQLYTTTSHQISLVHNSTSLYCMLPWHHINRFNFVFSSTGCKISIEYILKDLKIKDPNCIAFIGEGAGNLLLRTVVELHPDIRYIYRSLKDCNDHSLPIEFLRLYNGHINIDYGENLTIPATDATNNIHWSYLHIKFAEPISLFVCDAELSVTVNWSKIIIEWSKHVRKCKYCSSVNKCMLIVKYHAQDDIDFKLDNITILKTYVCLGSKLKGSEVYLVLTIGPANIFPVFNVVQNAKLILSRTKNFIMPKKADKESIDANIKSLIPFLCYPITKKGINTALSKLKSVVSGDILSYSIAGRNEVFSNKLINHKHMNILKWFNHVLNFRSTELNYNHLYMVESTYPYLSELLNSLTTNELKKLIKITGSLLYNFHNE
Chain of recombinant RSV complex (P03421 whole entry, further chain): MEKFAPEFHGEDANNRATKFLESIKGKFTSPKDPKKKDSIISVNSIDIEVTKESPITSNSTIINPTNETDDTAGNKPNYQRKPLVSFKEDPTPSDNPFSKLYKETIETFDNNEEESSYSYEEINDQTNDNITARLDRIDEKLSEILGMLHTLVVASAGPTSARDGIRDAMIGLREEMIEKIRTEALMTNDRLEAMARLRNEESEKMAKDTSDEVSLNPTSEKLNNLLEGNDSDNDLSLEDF

Row | SMILES | IC50 [1] [µM] | EC50 [2, 4] [µM] | CC50 at 5 days [3] [µM] | EC50 [2, 5] [µM]
1 | COc1cc(C(=O)NCC(N)(CF)c2ccc(OC)c(-c3ccc(F)c(Cl)c3)n2)ccc1OC1CC1 (stereo not drawn) [Compound 518] | < 1 | < 1 | 10 to 100 | –
2 | COCC(C)(NC(C)=O)c1cc(-c2ccc(F)c(Cl)c2)nc(C(O)(CNC(=O)c2ccc(OC3CC3)c(OC)c2)C(F)(F)F)c1 (stereo not drawn) [Compound 537] | < 1 | < 1 | 10 to 100 | –
3 | COCC(C)(N)c1cc(-c2ccc(F)c(Cl)c2)nc(C(O)(CNC(=O)c2ccc(OCCO)c(OC)c2)C(F)(F)F)c1 (stereo not drawn) [Compound 541] | < 1 | < 1 | 10 to 100 | –
4 | COc1cc(C(=O)NC[C@@](O)(c2cc(C(C)(C)N)cc(-c3ccc(F)c(Cl)c3)n2)C(F)(F)F)ccc1OCCO [Compound 549] | < 1 | 1 to 50 | 10 to 100 | –
5 | COc1cc(C(=O)NC[C@@](O)(c2cc(C(C)(C)N)cc(-c3ccc(F)cc3)n2)C(F)(F)F)ccc1OCCO [Compound 553] | < 1 | < 1 | 10 to 100 | –
6 | COc1cc(C(=O)NCC(O)(c2cc(C(C)(C)N)cc(-c3ccc(I)nc3)n2)C(F)(F)F)ccc1OC1CC1 (stereo not drawn) [Compound 557] | < 1 | < 1 | 10 to 100 | –
7 | COc1cc(C(=O)NCC(O)(c2cc3c(c(-c4ccc(F)cc4)n2)OCC3(N)C(C)C)C(F)(F)F)ccc1OCCO (stereo not drawn) [Compound 565] | < 1 | < 1 | 10 to 100 | –
8 | COc1cc(C(=O)NCC(O)(c2cc3c(c(-c4ccc(F)cc4)n2)OCC3(N)C(C)C)C(F)(F)F)ccc1OC[C@@H](C)O (stereo partly drawn) [Compound 568] | < 1 | < 1 | 10 to 100 | –
9 | CC(C)(N)c1cc(-c2ccc(F)cc2)nc(C(O)(CNC(=O)c2ccc3c(c2)NC(=O)C3)C(F)(F)F)c1 (stereo not drawn) [Compound 570] | < 1 | – | 10 to 100 | < 1
10 | COc1cc(C(=O)NCC(O)(c2cc(C(C)(C)N)cc(-c3ccc(F)c(Cl)c3)n2)C(F)(F)F)ccc1NC(C)=O (stereo not drawn) [Compound 592] | < 10 | < 1 | 10 to 100 | –
11 | COc1cc(C(=O)NCC(O)(c2cc(C(C)(C)N)cc(-c3ccc(F)c(Cl)c3)n2)C(F)(F)F)ccc1NS(C)(=O)=O (stereo not drawn) [Compound 593] | < 1 | < 1 | 10 to 100 | –
12 | COc1cc(C(=O)NCC(O)(c2cc3c(c(-c4ccc(F)cc4)n2)OCC3(C)N)C(F)(F)F)ccc1OC1CC(O)C1 (stereo not drawn) [Compound 597] | < 10 | < 1 | 10 to 100 | –
13 | COc1cc(C(=O)NCC(O)(c2cc(C(C)(C)N)cc(-c3ccc(F)cc3)n2)C(F)(F)F)ccc1-c1ccncc1 (stereo not drawn) [Compound 599] | < 1 | < 1 | 10 to 100 | –
14 | COc1cc(C(=O)NC[C@@](O)(c2cc3c(c(-c4ccc(C#N)cc4)n2)OC[C@]3(C)N)C(F)(F)F)ccc1OCCO [Compound 604b] | < 10 | 1 to 50 | > 100 | –
15 | Cc1nc(C(=O)NCC(O)(c2cc(C(C)(C)N)cc(-c3ccc(F)cc3)n2)C(F)(F)F)co1 (stereo not drawn) [Compound 607] | < 10 | 1 to 50 | 10 to 100 | –
16 | Cc1ncc(C(=O)NCC(O)(c2cc(C(C)(C)N)cc(-c3ccc(F)cc3)n2)C(F)(F)F)o1 (stereo not drawn) [Compound 608] | < 10 | 1 to 50 | > 100 | –
17 | Cc1ncc(C(=O)NCC(O)(c2cc(C(C)(C)N)cc(-c3ccc(F)cc3)n2)C(F)(F)F)[nH]1 (stereo not drawn) [Compound 609] | < 10 | 1 to 50 | 10 to 100 | –
18 | CC(C)(N)c1cc(-c2ccc(F)cc2)nc(C(O)(CNC(=O)c2ccc3oc(=O)[nH]c3c2)C(F)(F)F)c1 (stereo not drawn) [Compound 610] | < 1 | – | 10 to 100 | < 1
19 | COc1cc(C(=O)NCC(O)(c2ccc(OC)c(-c3ccc(F)cc3)n2)C(F)(F)F)ccc1OCCO (stereo not drawn) [Compound 619] | < 1 | < 1 | 10 to 100 | –
20 | COc1cc(C(=O)NCC(O)(c2cc(C(C)(C)NC(C)=O)cc(-c3ccc(F)cc3)n2)C(F)(F)F)ccc1OC[C@@H](C)O (stereo partly drawn) [Compound 620] | < 1 | – | > 100 | < 1
21 | COc1cc(C(=O)NC[C@@](O)(c2cc3c(c(-c4ccc(F)cc4)n2)OC[C@]3(C)N)C(F)(F)F)ccc1OC[C@@H](C)O [Compound 629] | < 1 | < 1 | 10 to 100 | –
22 | COc1cc(C(=O)NC[C@](O)(c2cc3c(c(-c4ccc(F)cc4)n2)OC[C@]3(C)N)C(F)(F)F)ccc1OC[C@@H](C)O [Compound 631] | < 1 | < 1 | 10 to 100 | –
